In article PMC8459971, “Evaluation of the hepatotoxicity of the novel GPR40 (FFAR1) agonist CPL207280 in the rat and monkey” (PLoS ONE, 2021):
Where “and” joins values, the source holds several entries; their conditions need not be identical. Equal values may be shown once.

Columns and labels:
BSEP = BSEP (Homo sapiens, UniProt O95342); test: Vesicular transport inhibition assay, BSEP
in vivo = settings: for AUC(0-t): AUC24h (Mean); for AUC24h (Mean): both
OAT2v1 = target: T1, OAT2v1 (Homo sapiens, UniProt Q9Y694); test: Uptake transporter inhibition assay, OAT2v1; type: cell-based; settings: for Accumulation (counts per minute; CPM) HEK293FT-MOCK / Accumulation (counts per minute; CPM) HEK293FT-OAT2v1: OAT2v1
T1 construct: expressed in transfected cells; host or cells: HEK cells
T1 sequence (Q9Y694 1-546 isoform Q9Y694-2): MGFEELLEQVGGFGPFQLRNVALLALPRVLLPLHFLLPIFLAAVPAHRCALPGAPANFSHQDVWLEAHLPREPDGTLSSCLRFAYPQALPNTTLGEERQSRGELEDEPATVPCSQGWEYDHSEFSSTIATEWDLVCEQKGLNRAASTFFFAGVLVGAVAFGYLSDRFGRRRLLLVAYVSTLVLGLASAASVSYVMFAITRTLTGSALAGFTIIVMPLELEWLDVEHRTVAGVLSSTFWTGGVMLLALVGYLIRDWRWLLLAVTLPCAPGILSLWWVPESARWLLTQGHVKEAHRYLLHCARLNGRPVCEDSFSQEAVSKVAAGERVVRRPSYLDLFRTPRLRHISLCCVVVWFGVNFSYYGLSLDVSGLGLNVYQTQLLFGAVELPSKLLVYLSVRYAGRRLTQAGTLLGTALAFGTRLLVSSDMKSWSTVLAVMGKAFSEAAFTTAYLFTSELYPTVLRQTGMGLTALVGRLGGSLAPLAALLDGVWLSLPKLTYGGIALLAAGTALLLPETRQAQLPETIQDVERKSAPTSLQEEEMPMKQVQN
Experimental: (§1) For the uptake transporter inhibition assay, cells were washed twice with 100 μL of the appropriate buffer (HK, pH 7.4) for OATP1B1, followed by HBSS (pH 7.4) for (NTCP, OAT1, OAT2v1, OATP1A2, and OATP1B3). Uptake experiments were carried out at 37 ± 1°C in 50 μL of the respective buffer containing the probe substrate and the compound or solvent.

MRP3 = MRP3 (Homo sapiens, UniProt O15438); test: Vesicular transport inhibition assay, MRP3; settings: for Accumulation (counts per minute; CPM) with AMP / Accumulation (counts per minute; CPM) with ATP: MRP3;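 also: membrane vesicles with radiolabelled probe substrate and 2 mM glutathione, 4 mM ATP versus AMP background control, vesicle-trapped substrate quantified by liquid scintillation counting after filtration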;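 as to Accumulation (counts per minute; CPM) with AMP: ATP 4 mM vs AMP background separates transporter uptake from diffusion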;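 as to Accumulation (counts per minute; CPM) with ATP: ATP 4 mM vs AMP background separates transporter uptake from diffusion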
Sequence of MRP3 (O15438 whole entry, the tested form may be a part): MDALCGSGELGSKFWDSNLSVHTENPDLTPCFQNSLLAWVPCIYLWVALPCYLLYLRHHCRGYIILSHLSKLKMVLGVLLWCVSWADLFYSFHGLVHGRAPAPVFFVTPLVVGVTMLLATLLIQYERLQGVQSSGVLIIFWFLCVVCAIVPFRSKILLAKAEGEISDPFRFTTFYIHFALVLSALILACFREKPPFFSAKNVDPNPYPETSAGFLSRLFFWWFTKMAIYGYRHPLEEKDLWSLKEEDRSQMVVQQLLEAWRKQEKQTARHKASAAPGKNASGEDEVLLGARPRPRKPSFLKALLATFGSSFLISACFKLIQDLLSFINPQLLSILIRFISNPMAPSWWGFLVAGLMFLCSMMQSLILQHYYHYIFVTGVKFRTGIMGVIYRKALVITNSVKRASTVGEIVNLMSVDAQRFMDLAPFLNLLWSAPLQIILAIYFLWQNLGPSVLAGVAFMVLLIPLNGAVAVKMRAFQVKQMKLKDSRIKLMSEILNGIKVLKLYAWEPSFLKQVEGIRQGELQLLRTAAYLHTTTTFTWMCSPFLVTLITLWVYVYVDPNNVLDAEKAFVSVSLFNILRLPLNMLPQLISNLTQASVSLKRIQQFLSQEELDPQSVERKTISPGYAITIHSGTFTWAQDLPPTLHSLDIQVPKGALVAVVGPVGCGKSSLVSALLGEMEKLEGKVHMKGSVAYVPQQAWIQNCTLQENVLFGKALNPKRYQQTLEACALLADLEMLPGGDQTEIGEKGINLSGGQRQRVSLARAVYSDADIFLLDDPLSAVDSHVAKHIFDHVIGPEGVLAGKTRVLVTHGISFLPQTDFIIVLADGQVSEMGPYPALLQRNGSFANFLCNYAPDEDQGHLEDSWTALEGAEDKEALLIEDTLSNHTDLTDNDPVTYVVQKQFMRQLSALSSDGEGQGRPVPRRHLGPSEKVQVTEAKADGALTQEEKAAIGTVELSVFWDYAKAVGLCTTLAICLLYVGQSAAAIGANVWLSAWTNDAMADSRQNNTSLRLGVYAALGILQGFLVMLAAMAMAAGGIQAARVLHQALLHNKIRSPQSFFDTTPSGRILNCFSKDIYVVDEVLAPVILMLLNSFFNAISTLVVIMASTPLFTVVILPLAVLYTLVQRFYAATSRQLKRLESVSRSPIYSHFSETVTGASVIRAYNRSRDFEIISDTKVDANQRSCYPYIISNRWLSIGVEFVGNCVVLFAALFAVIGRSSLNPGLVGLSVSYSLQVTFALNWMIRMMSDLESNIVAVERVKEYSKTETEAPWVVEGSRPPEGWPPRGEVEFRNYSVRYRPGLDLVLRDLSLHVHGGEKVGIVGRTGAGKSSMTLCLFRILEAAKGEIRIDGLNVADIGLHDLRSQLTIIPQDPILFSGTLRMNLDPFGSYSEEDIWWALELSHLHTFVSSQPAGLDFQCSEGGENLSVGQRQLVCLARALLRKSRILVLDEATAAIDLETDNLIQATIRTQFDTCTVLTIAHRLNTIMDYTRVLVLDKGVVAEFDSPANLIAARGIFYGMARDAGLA
Experimental: In the vesicular transport inhibition assay (for BSEP, MRP) compounds were incubated with membrane vesicle preparations and the probe substrate. Incubations were carried out in the presence of 4 mM ATP or AMP to distinguish between transporter-mediated uptake and passive diffusion into the vesicles. For MRP2 and MRP3, reactions were carried out in the presence of 2 mM glutathione. Compounds were added to the reaction mixture in 0.75 μL of solvent (1% of the final incubation volume). […] Reactions were initiated by the addition of 25 μL of 12 mM MgATP (or 12 mM AMP in assay buffer as a background control) and preincubated separately. Reactions were quenched by the addition of 200 μL of ice-cold washing buffer and immediate filtration via glass fiber filters mounted on a 96-well plate (filter plate). The filters were washed (5 × 200 μL of ice-cold washing buffer), dried, and the amount of substrate inside the filtered vesicles was determined by liquid scintillation counting.

NTCP = target: T2, NTCP (Homo sapiens, UniProt Q14973); test: Uptake transporter inhibition assay, NTCP; type: cell-based; settings: for Accumulation (counts per minute; CPM) HEK293-NTCP / Accumulation (counts per minute; CPM) HEK293FT-MOCK: NTCP
T2 construct: expressed in transfected cells; host or cells: HEK cells
T2 sequence (Q14973 1-349): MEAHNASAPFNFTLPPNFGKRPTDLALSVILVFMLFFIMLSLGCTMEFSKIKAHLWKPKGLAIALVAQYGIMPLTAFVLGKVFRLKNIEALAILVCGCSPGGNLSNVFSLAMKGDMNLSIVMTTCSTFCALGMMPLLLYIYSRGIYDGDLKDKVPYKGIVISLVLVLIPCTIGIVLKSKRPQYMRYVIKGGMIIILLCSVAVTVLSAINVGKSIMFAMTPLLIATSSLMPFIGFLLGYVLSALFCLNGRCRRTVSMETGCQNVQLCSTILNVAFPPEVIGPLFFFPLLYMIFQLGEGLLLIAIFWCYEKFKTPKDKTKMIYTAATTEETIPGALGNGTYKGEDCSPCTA
Experimental: as §1

[1] = Stability in microsomes, human; type: in vitro ADME; settings: for average DEG [%]: human microsomes, with cofactors
Experimental: The final incubation volume was 500 μL. Two control compounds (verapamil and donepezil) were included for each microsomal species, along with the appropriate vehicle control. The reactions were terminated by transferring 50 μL of incubate to 100 μL methanol containing an internal standard (metoprolol) at appropriate time points (0, 10, 20, 40, 60, and 120 min for the test compound and 0, 5, 10, 20, 40, and 60 min for the control compounds). The termination plates were centrifuged at 4000 x g at 4°C for 30 min to precipitate the protein. The supernatants were then collected for analysis, and LC-MS/MS was used for detection purposes. The system consisted of an Acquity™ Binary Solvent Manager, Acquity™ 4-position heated column manager, 2777 Ultra High Pressure Autosampler, and a Xevo-TQ MS triple quadrupole mass spectrometer (Waters Ltd., Herts, UK). This process was carried out twice.

Sequence of BSEP (O95342 whole entry): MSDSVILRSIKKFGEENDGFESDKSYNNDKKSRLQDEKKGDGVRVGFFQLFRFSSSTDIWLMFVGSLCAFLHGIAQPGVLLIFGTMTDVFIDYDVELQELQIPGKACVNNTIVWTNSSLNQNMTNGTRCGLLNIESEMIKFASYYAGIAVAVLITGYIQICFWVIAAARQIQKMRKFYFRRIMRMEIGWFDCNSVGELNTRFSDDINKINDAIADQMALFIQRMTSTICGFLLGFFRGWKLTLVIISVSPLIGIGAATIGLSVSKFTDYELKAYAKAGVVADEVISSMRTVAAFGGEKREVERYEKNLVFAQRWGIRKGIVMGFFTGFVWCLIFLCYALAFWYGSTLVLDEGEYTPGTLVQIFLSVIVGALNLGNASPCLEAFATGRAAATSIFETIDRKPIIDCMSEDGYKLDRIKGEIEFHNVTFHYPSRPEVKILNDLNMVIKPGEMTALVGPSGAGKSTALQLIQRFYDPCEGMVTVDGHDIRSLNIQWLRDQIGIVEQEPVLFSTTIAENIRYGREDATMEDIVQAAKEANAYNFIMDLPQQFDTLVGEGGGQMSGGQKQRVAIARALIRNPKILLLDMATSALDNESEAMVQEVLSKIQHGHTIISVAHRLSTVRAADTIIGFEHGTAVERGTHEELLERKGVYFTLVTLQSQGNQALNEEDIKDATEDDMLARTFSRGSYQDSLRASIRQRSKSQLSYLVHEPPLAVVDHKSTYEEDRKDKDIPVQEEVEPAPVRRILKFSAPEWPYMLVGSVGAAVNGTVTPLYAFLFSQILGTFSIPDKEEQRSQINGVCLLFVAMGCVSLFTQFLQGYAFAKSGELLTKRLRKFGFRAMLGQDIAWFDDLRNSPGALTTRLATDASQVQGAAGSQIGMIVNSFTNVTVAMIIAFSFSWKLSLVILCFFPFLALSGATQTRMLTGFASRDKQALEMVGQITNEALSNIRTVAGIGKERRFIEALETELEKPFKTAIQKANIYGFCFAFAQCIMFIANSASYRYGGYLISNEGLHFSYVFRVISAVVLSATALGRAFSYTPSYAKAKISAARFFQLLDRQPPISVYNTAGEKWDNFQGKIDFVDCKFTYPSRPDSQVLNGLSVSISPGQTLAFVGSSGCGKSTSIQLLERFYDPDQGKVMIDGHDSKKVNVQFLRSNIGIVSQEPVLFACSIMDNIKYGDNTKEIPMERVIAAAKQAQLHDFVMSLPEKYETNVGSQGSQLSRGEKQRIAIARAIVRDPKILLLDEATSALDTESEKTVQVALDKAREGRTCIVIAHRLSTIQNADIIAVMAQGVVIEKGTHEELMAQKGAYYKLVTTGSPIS

SMILES: CC#C[C@@H](CC(=O)O)c1ccc(OCC(C)=C(C)C)cc1 [CPL207280]
- Accumulation (counts per minute; CPM) HEK293-BSEP (BSEP; conc 0.41 µM): 13312 CPM and 13786 CPM and 14638 CPM
- Accumulation (counts per minute; CPM) HEK293-MOCK (BSEP; conc 0.41 µM): 373 CPM and 338 CPM and 317 CPM
- Accumulation (counts per minute; CPM) HEK293-BSEP (BSEP; conc 1.23 µM): 14288 CPM and 14991 CPM and 14336 CPM
- Accumulation (counts per minute; CPM) HEK293-MOCK (BSEP; conc 1.23 µM): 402 CPM and 297 CPM and 306 CPM
- Accumulation (counts per minute; CPM) HEK293-BSEP (BSEP; conc 3.70 µM): 14804 CPM and 15510 CPM and 14684 CPM
- Accumulation (counts per minute; CPM) HEK293-MOCK (BSEP; conc 3.70 µM): 350 CPM and 288 CPM and 349 CPM
- Accumulation (counts per minute; CPM) HEK293-BSEP (BSEP; conc 11.11 µM): 14585 CPM and 13490 CPM and 14701 CPM
- Accumulation (counts per minute; CPM) HEK293-MOCK (BSEP; conc 11.11 µM): 382 CPM and 355 CPM and 370 CPM
- Accumulation (counts per minute; CPM) HEK293-BSEP (BSEP; conc 33.33 µM): 14312 CPM and 13194 CPM and 13689 CPM
- Accumulation (counts per minute; CPM) HEK293-MOCK (BSEP; conc 33.33 µM): 426 CPM and 364 CPM and 386 CPM
- Accumulation (counts per minute; CPM) HEK293-BSEP (BSEP; conc 100 µM): 10784 CPM and 11964 CPM and 11554 CPM
- Accumulation (counts per minute; CPM) HEK293-MOCK (BSEP; conc 100 µM): 273 CPM and 371 CPM
- Accumulation in rat plasma after repeat dose (in vivo): No
- Cmax at 14 days (in vivo; both sexes, Wistar Han, rat, 1200 mg/kg, Cmax): 250 µg/mL
- Cmax (in vivo; both sexes, Wistar Han, rat, po, 150 mg/kg, Cmax): 125 µg/mL
- AUC(0-t) (in vivo; both sexes, Wistar Han, rat, po, 300 mg/kg/day): 2350 µg·h/mL
- Cmax (in vivo; both sexes, Wistar Han, rat, po, 300 mg/kg/day, Cmax (Mean)): 227 µg/mL
- AUC(0-t) (in vivo; both sexes, Wistar Han, rat, po, 600 mg/kg/day): 2920 µg·h/mL
- Cmax (in vivo; both sexes, Wistar Han, rat, po, 600 mg/kg/day, Cmax (Mean)): 257 µg/mL
- Cmax (in vivo; both sexes, Wistar Han, rat, po, 1200 mg/kg, Cmax): 222 µg/mL
- AUC (in vivo; both sexes, Wistar Han, rat, po, 1200 mg/kg, exposure - AUC): 2590 µg·h/mL
- AUC24h (Mean) (in vivo; Wistar Han, rat, po, 300 mg/kg/day): 1605030 ng x hr/mL
- AUC24h (Mean) (in vivo; Wistar Han, rat, po, 600 mg/kg/day): 2156620 ng x hr/mL
- fold less inhibitory potency than TAK-875, OAT2v1 (OAT2v1): at least 10 fold
- Accumulation (counts per minute; CPM) HEK293FT-MOCK (OAT2v1; conc 0.10 µM): 34 CPM and 30 CPM
- Accumulation (counts per minute; CPM) HEK293FT-OAT2v1 (OAT2v1; conc 0.10 µM): 4632 CPM and 4226 CPM
- Accumulation (counts per minute; CPM) HEK293FT-MOCK (OAT2v1; conc 1.00 µM): 35 CPM and 32 CPM
- Accumulation (counts per minute; CPM) HEK293FT-OAT2v1 (OAT2v1; conc 1.00 µM): 4766 CPM and 4500 CPM
- Accumulation (counts per minute; CPM) HEK293FT-MOCK (OAT2v1; conc 3.00 µM): 30 CPM and 23 CPM
- Accumulation (counts per minute; CPM) HEK293FT-OAT2v1 (OAT2v1; conc 3.00 µM): 4371 CPM and 4417 CPM
- Accumulation (counts per minute; CPM) HEK293FT-MOCK (OAT2v1; conc 10.00 µM): 27 CPM and 18 CPM
- Accumulation (counts per minute; CPM) HEK293FT-OAT2v1 (OAT2v1; conc 10.00 µM): 4079 CPM and 4225 CPM
- Accumulation (counts per minute; CPM) HEK293FT-MOCK (OAT2v1; conc 30.00 µM): 32 CPM and 37 CPM
- Accumulation (counts per minute; CPM) HEK293FT-OAT2v1 (OAT2v1; conc 30.00 µM): 3998 CPM and 4091 CPM
- Accumulation (counts per minute; CPM) HEK293FT-MOCK (OAT2v1; conc 100.00 µM): 28 CPM and 36 CPM
- Accumulation (counts per minute; CPM) HEK293FT-OAT2v1 (OAT2v1; conc 100.00 µM): 3763 CPM and 3594 CPM
- Accumulation (counts per minute; CPM) HEK293FT-MOCK (OAT2v1; conc 300.00 µM): 35 CPM and 25 CPM
- Accumulation (counts per minute; CPM) HEK293FT-OAT2v1 (OAT2v1; conc 300.00 µM): 2566 CPM and 2951 CPM
- Accumulation (counts per minute; CPM) with AMP (MRP3; conc 0.10 µM): 240 CPM and 237 CPM
- Accumulation (counts per minute; CPM) with ATP (MRP3; conc 0.10 µM): 3273 CPM and 4152 CPM
- Accumulation (counts per minute; CPM) with AMP (MRP3; conc 1.00 µM): 221 CPM and 228 CPM
- Accumulation (counts per minute; CPM) with ATP (MRP3; conc 1.00 µM): 4818 CPM and 3968 CPM
- Accumulation (counts per minute; CPM) with AMP (MRP3; conc 3.00 µM): 249 CPM and 236 CPM
- Accumulation (counts per minute; CPM) with ATP (MRP3; conc 3.00 µM): 4175 CPM and 4726 CPM
- Accumulation (counts per minute; CPM) with AMP (MRP3; conc 10.00 µM): 274 CPM and 219 CPM
- Accumulation (counts per minute; CPM) with ATP (MRP3; conc 10.00 µM): 3924 CPM and 3961 CPM
- Accumulation (counts per minute; CPM) with AMP (MRP3; conc 30.00 µM): 231 CPM and 249 CPM
- Accumulation (counts per minute; CPM) with ATP (MRP3; conc 30.00 µM): 5849 CPM and 5611 CPM
- Accumulation (counts per minute; CPM) with AMP (MRP3; conc 100.00 µM): 250 CPM and 247 CPM
- Accumulation (counts per minute; CPM) with ATP (MRP3; conc 100.00 µM): 5885 CPM and 4953 CPM
- Accumulation (counts per minute; CPM) with AMP (MRP3; conc 300.00 µM): 206 CPM and 163 CPM
- Accumulation (counts per minute; CPM) with ATP (MRP3; conc 300.00 µM): 6861 CPM and 6621 CPM
- MRP3 Estimated IC50 (95% CI of IC50) (MRP3; vesicles, up to 300μM, n = 2): no affinity
- Accumulation (counts per minute; CPM) HEK293-NTCP (NTCP; conc 0.10 µM): 4707 CPM and 4966 CPM
- Accumulation (counts per minute; CPM) HEK293FT-MOCK (NTCP; conc 0.10 µM): 25 CPM
- Accumulation (counts per minute; CPM) HEK293-NTCP (NTCP; conc 1.00 µM): 4654 CPM and 4992 CPM
- Accumulation (counts per minute; CPM) HEK293FT-MOCK (NTCP; conc 1.00 µM): 29 CPM and 25 CPM
- Accumulation (counts per minute; CPM) HEK293-NTCP (NTCP; conc 3.00 µM): 4021 CPM and 4291 CPM
- Accumulation (counts per minute; CPM) HEK293FT-MOCK (NTCP; conc 3.00 µM): 19 CPM and 23 CPM
- Accumulation (counts per minute; CPM) HEK293-NTCP (NTCP; conc 10.00 µM): 3614 CPM and 3535 CPM
- Accumulation (counts per minute; CPM) HEK293FT-MOCK (NTCP; conc 10.00 µM): 24 CPM and 36 CPM
- Accumulation (counts per minute; CPM) HEK293-NTCP (NTCP; conc 30.00 µM): 2611 CPM and 3022 CPM
- Accumulation (counts per minute; CPM) HEK293FT-MOCK (NTCP; conc 30.00 µM): 21 CPM
- Accumulation (counts per minute; CPM) HEK293-NTCP (NTCP; conc 100.00 µM): 1462 CPM and 1666 CPM
- Accumulation (counts per minute; CPM) HEK293FT-MOCK (NTCP; conc 100.00 µM): 25 CPM and 27 CPM
- Accumulation (counts per minute; CPM) HEK293-NTCP (NTCP; conc 300.00 µM): 771 CPM and 846 CPM
- Accumulation (counts per minute; CPM) HEK293FT-MOCK (NTCP; conc 300.00 µM): 29 CPM and 23 CPM
- IC50 (NTCP; transformed HEK cells, up to 300μM, n = 2): 46.8 µM
- half-life at 3 μM ([1]; Human microsomes, mean n = 2): 28 min
- microsomal CLint at 3 μM ([1]; Human microsomes, mean n = 2): 49.2 µL/min/mg
- stability classification in microsomes ([1]; based on the Clint values from different species, reference ranges by Cyprotex (human range given in legend)): unstable compound
- average DEG [%] ([1]; 0 min): 100.0%
- average DEG [%] ([1]; 20 min): 45.8942%
- average DEG [%] ([1]; 40 min): 32.2635%
- average DEG [%] ([1]; 60 min): 21.8%
